# Assay results as given in ChEMBL document CHEMBL1201862, “PubChem BioAssay data set” (2004).
# Active and inactive are the calls of the source.
# Experiments:
# [1] = Luminescence Cell-Based Dose Response HTS to Identify Inhibitors of 5'UTR Stem-Loop Driven Prion Protein mRNA Translation in H4 Neuroglioblastoma Cells. [Related pubchem assays: 1827 (Project Summary), 1813 (Primary HTS)]; type: functional
# [2] = general cell-killing toxicity readout – plate reader, dry powder samples, cytotoxicity control for PAX8 inhibitor project, dose response (AID 743021); type: functional, cell-based
# Paired box protein Pax-8 = Paired box protein Pax-8 (Homo sapiens, UniProt Q06710); assay: PAX8 transcriptional activity inhibition in RMG-I – RMG-I cells, luciferase, cherry-pick, dose response (AID 687027); type: functional, cell-based;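 note: luciferase reporter driven by Pax8 target thyroperoxidase promoter measured by SteadyGlo luminescence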
# Paired box protein Pax-8, sequence (Q06710 whole entry): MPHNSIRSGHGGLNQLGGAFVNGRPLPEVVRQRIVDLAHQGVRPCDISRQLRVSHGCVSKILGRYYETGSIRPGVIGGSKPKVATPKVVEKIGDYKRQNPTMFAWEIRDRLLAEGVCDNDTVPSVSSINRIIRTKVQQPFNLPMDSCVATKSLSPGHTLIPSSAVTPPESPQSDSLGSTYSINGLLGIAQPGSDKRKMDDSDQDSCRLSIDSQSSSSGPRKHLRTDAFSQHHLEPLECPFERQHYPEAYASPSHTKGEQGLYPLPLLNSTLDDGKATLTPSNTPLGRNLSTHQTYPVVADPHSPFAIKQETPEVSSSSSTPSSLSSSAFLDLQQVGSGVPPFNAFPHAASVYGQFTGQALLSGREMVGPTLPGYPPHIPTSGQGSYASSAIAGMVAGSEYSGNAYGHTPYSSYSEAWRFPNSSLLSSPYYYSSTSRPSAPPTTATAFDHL
# [3] = molecular target: T1, Rac GTPase-activating protein 1 (Homo sapiens, UniProt Q9H0H5); assay: blockers of MgcRacGAP-driven Rac1 GTP hydrolysis – biochemical, ADP Hunter fluorescence, primary and confirmatory, confirmation (AID 624330); type: functional
# T1 sequence (Q9H0H5 whole entry): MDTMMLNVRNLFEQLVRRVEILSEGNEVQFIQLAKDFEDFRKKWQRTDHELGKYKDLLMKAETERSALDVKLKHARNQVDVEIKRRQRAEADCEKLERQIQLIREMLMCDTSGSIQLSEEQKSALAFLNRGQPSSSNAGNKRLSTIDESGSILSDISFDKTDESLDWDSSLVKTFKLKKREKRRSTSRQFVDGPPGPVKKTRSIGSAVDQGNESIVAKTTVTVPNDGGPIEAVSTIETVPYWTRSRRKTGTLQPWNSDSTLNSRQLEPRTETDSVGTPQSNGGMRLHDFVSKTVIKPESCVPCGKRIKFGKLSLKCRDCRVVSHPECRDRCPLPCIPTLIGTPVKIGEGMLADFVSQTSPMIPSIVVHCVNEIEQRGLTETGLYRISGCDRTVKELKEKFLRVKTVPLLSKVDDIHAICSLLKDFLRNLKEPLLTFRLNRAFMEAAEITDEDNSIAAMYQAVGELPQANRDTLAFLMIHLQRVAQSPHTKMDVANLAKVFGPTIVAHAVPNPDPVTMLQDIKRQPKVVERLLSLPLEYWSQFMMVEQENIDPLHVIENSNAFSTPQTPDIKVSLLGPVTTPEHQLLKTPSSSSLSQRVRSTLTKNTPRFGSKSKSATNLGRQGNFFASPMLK
# [4] = viability loss in HeLa cells – cytotoxicity control for MgcRacGAP inhibitor project, dose response (AID 624300); type: functional
# [5] = luciferase reporter signal suppression in cells – H4 neuroglioma cells, luminescence, dose response (AID 1990); type: functional, cell-based
# [6] = alpha-synuclein stem-loop luciferase translation blockers – H4 neuroglioma cells, luminescence, confirmation (AID 1988); type: functional, cell-based
# [7] = molecular target: T2, Ubiquitin-conjugating enzyme E2 N (Homo sapiens, UniProt P61088); type: functional;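 note: Dose-response confirmation in a TR-FRET assay detecting UBC13-driven polyubiquitin chain formation, inhibition measured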
# T2 sequence (P61088 whole entry): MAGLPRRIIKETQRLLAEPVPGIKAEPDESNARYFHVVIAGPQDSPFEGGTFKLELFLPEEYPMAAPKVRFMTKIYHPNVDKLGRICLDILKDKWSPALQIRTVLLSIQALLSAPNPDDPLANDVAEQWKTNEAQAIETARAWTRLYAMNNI
# [8] = inhibitors of non-replicating M. tuberculosis, dose response, luciferase, dry powder (AID 651620); type: functional; details: Mycobacterium tuberculosis
# [9] = HeLa cell viability loss – plate reader, dry powder, cytotoxicity control, dose response (AID 651946); type: functional, cell-based
# [10] = inhibitors of non-replicating M. tuberculosis, dose response, luciferase, dry powder (AID 651619); type: functional; details: Mycobacterium tuberculosis
# [11] = molecular target: T3, Oxysterols receptor LXR-beta (Homo sapiens, UniProt P55055); type: functional, cell-based;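 note: agonist activity at LXR measured by a cell-based luminescence readout across a dose range, run as a counterscreen for daf-12 agonists; HEK293 cells with Gal4-LXR fusion and GAL4-driven luciferase reporter; potency for activation of Gal4-LXR reporter so compounds are agonists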
# T3 sequence (P55055 whole entry): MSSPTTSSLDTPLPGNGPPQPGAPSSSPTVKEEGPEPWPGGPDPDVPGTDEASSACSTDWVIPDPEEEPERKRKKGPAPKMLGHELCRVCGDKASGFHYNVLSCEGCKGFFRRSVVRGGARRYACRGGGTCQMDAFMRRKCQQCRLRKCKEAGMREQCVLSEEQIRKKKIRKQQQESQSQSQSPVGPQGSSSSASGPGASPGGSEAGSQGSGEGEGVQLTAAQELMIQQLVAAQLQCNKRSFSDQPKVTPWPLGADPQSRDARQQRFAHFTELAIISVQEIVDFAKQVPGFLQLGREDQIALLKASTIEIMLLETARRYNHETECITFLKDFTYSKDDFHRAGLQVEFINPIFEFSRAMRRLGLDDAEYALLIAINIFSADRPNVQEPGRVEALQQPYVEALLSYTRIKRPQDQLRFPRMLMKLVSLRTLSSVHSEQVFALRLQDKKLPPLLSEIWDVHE
# [12] = molecular target: T4, Replicative DNA helicase DnaB (Mycobacterium tuberculosis, UniProt P9WMR3); assay: DnaB intein splicing inhibitors, dose response, biochemical, cell-free fluorescence (AID 449749); type: functional
# T4 sequence (P9WMR3 whole entry): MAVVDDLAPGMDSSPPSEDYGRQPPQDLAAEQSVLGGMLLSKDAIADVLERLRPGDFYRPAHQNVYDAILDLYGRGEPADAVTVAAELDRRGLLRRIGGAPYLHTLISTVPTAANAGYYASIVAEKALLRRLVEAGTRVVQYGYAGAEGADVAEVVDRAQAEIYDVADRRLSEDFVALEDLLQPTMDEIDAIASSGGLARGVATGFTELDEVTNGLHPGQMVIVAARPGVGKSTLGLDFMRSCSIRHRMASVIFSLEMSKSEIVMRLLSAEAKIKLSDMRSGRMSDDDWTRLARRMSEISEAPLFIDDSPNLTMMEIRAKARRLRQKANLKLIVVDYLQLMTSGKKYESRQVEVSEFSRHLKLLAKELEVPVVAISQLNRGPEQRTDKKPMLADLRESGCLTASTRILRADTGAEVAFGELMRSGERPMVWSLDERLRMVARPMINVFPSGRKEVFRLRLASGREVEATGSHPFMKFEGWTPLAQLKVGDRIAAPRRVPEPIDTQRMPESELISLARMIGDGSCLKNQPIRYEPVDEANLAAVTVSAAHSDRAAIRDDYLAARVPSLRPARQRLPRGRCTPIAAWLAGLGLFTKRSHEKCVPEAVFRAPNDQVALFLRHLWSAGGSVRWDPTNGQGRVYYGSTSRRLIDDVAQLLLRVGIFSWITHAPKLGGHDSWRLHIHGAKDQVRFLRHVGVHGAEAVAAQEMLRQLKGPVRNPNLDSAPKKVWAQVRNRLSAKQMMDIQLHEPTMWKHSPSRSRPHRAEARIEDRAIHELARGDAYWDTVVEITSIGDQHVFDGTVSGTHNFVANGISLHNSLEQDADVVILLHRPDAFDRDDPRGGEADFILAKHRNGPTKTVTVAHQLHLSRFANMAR
# [13] = molecular target: T5, DNA repair protein RAD52 homolog (Homo sapiens, UniProt P43351); type: functional, biochemical
# T5 sequence (P43351 whole entry): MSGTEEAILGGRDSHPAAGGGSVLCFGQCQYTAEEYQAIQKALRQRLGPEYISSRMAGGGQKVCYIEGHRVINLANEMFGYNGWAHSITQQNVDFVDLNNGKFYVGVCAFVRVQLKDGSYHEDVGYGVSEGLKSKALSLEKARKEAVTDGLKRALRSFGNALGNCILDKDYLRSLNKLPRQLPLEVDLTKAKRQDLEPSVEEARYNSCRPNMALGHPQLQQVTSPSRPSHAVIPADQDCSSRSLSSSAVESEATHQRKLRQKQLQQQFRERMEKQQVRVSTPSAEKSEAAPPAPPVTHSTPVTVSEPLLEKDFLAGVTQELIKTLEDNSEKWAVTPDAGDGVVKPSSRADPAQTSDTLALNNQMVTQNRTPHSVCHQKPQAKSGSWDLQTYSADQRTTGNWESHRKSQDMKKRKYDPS
# SN12K1 = assay: cells; type: functional; details: Homo sapiens
# [14] = molecular target: Tyrosyl-DNA phosphodiesterase 2 (Homo sapiens, UniProt O95551); assay: potency against TDP2 phosphodiesterase activity – biochemical, epi absorbance, IC50, dose response (AID 743297)
# Tyrosyl-DNA phosphodiesterase 2, sequence (O95551 whole entry): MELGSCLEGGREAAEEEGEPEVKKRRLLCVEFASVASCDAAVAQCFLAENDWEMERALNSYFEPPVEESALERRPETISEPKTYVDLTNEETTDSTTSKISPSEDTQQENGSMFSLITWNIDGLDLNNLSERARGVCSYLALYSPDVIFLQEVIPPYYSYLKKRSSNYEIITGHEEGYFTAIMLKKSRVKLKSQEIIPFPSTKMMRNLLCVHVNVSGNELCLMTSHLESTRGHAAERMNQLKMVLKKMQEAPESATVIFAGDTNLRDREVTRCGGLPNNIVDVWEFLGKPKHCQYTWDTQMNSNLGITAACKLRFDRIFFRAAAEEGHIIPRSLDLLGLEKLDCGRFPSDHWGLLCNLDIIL
# Caspase-6 = molecular target: T6, Caspase-6 (Homo sapiens, UniProt P55212); assay: inhibition of CASP6 peptide cleavage – biochemical, VEID-R110 fluorescence, cherry-pick, dose response (AID 720632)
# T6 sequence (P55212 whole entry): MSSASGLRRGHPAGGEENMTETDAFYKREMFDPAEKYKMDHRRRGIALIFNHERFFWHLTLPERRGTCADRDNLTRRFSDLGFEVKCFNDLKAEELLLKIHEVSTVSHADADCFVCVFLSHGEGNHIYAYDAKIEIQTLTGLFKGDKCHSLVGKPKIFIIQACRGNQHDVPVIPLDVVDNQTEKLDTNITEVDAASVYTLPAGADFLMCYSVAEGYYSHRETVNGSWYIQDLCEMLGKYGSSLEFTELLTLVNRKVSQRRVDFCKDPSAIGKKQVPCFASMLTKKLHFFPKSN
# P388/ADR = assay: cells; type: functional; details: Mus musculus
# Protein RecA = molecular target: T7, Protein RecA (Mycobacterium tuberculosis, UniProt P9WHJ3); assay: Fluorescence Cell-Free Homogeneous Dose Retest to Identify Inhibitors of RecA-Intein Splicing Activity. [Related pubchem assays (depositor defined):AID2097, AID2223, AID489010, AID492950]; type: functional
# T7 sequence (P9WHJ3 whole entry): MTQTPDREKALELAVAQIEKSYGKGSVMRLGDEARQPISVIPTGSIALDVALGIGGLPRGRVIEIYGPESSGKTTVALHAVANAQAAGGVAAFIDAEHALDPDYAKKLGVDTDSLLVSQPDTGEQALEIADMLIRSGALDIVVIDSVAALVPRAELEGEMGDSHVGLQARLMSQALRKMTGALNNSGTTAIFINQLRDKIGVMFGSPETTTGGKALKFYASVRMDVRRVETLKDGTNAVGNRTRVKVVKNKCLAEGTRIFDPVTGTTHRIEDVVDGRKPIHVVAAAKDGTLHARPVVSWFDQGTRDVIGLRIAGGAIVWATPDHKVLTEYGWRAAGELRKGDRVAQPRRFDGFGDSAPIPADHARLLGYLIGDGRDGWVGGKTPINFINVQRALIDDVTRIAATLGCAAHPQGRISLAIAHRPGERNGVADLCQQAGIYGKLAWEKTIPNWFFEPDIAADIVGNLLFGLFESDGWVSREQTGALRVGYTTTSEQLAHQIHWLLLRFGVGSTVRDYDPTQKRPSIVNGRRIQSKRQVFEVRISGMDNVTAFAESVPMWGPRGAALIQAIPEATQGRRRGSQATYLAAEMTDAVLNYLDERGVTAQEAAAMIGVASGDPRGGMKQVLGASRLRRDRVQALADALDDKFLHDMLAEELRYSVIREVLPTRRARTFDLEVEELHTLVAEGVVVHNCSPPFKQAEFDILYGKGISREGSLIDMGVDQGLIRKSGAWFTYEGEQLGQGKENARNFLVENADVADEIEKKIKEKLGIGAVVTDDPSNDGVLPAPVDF
# P388 = assay: cells; type: functional; details: Mus musculus
# [15] = molecular target: Dual specificity tyrosine-phosphorylation-regulated kinase 1A (Rattus norvegicus, UniProt Q63470); type: biochemical, Homo sapiens
# [16] = bead-based luminescence quenchers, dual-tagged ARNT – biochemical, AlphaScreen, cherry-pick, artefact control for ARNT-TACC3 interaction inhibitor project, dose response (AID 651705); type: functional;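 note: AlphaScreen bead proximity signal that flags compounds interfering with the detection technology; potency reflects signal decrease which marks the compound as an assay artifact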
# [17] = activation of miR-122 Renilla sensor silencing – cell-based, Huh7 psiCHECK-miR122, Renilla luciferase, cherry-picked, dose response (AID 651956); type: functional;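 note: huh7 hepatoma cells stably carrying a psiCHECK-2 miR-122 sensor plasmid; renilla luciferase signal reporting endogenous miR-122 activity after 48 h compound exposure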
# [18] = general mammalian cell viability loss – activator set, cherry-pick, cytotoxicity control for miR-122 modulator project, dose response (AID 720690); type: functional, cell-based;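 note: HEK293T human cells scored for general mammalian cytotoxicity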
# [19] = viability loss in HEK293 kidney cells – cell-based, cherry-picks, set 5, cytotoxicity control, dose response (AID 1053117); type: functional
# [20] = viability loss in A549 lung cancer cells – cell-based, cherry-picks, […], cytotoxicity control, dose response (AID 1053119); type: functional
# [21] = molecular target: Disintegrin and metalloproteinase domain-containing protein 17 (Homo sapiens, UniProt P78536); assay: exosite inhibitors of ADAM17, dose response, biochemical (AID 743260)
# Disintegrin and metalloproteinase domain-containing protein 17, sequence (P78536 whole entry, the tested form may be a part): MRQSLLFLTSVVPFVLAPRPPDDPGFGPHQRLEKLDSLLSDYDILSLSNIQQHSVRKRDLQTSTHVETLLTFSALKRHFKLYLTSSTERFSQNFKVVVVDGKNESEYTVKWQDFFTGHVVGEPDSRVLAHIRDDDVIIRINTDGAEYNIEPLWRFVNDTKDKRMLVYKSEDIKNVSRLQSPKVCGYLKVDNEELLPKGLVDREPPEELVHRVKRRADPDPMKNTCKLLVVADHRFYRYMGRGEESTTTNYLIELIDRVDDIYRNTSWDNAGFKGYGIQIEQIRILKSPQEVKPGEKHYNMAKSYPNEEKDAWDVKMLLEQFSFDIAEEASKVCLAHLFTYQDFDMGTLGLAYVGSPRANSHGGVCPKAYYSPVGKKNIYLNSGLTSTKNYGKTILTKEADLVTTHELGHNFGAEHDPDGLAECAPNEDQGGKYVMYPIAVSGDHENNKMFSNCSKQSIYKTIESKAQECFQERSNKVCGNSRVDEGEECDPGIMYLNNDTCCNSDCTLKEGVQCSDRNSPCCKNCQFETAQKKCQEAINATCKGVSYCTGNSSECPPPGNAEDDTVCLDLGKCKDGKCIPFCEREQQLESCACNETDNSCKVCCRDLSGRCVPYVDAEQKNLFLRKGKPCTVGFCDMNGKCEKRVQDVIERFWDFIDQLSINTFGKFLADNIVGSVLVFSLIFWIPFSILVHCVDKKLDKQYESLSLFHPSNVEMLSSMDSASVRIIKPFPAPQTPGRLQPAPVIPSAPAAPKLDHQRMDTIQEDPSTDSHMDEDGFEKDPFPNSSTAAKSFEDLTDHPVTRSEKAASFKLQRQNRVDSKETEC
# [22] = inhibition of ADAM10 peptide cleavage – biochemical, FRET peptide substrate, recombinant human ADAM10, selectivity assay for ADAM17 exosite inhibitor project, dose response (AID 743259);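 note: ADAM10 enzyme cleaving a FRET peptide substrate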
# [23] = molecular target: Endoplasmic reticulum aminopeptidase 1 (Homo sapiens, UniProt Q9NZ08); assay: inhibition of human ERAP1 enzyme activity – biochemical, cherry-pick, set 2, plate reader, dose response (AID 743314)
# Endoplasmic reticulum aminopeptidase 1, sequence (Q9NZ08 whole entry): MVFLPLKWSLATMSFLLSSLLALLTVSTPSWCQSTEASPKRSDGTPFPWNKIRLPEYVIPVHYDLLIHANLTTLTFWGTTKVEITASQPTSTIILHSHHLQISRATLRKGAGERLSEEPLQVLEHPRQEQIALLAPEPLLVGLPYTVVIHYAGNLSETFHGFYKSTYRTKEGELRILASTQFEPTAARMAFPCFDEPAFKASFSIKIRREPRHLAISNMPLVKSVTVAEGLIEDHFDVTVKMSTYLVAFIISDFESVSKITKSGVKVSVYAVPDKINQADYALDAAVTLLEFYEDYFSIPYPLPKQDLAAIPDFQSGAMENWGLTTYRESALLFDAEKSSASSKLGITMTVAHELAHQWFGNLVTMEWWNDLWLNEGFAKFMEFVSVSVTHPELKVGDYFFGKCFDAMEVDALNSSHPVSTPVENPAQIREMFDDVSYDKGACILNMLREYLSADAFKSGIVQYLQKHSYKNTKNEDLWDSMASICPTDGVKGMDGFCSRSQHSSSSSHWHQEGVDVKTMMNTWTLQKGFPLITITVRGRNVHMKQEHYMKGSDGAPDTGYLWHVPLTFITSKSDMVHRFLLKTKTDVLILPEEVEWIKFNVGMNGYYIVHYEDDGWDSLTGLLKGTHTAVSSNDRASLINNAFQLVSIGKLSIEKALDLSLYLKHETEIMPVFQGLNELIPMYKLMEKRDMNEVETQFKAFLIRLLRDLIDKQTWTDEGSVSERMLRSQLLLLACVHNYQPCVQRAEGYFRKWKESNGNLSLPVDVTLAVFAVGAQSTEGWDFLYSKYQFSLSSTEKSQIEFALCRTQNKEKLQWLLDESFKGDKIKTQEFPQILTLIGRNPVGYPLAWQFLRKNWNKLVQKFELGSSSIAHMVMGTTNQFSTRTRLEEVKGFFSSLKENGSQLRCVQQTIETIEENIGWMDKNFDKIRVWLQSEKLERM
compound,measurement,setting,value
COc1ccc2nc(C)cc(N/N=C/c3cccc(OC)c3O)c2c1,EC50,[1],> 120 µM (not active)
same,AC50,[2],32.4 µM (active)
same,AC50,Paired box protein Pax-8,12 µM (active)
same,IC50,[3],51.8 µM (active)
same,CC50,[4],23.4 µM (active)
same,EC50,[5],> 120 µM (not active)
same,EC50,[6],7.76 µM (active)
same,IC50,[7],> 20 µM (inactive)
c1ccc(COc2nnc(-c3ccccc3)o2)cc1,IC90,[8],8 µM (active)
same,AC50,[9],> 52 µM (inactive)
same,IC90,[10],8 µM (active)
CCCCCc1nnc(NC(=O)C2=COCCO2)s1,EC50,[11],> 67.6 µM (inactive)
COc1cc2c(cc1OC)-c1c3c(cc4c1[C@@H](C2)N(C)CC4)OCO3,AC50,[12],26.7 µM (active)
same,AC50,[13],1.18 µM (active)
same,GI50,SN12K1,6.1 µM (inactive)
same,IC50,[14],7.83 µM (active)
same,AC50,Caspase-6,5.63 µM (active)
same,GI50,P388/ADR,7.08 µM (inactive)
same,EC50,Protein RecA,0.952 µM (active)
same,GI50,P388,8.53 µM (inactive)
same,AC50,[15],2.09 µM (active)
same,AC50,[16],116 µM (active)
CO[C@H]1CN(C)C(=O)c2cc(NC(=O)Nc3ccc(Cl)c(Cl)c3)ccc2OC[C@@H](C)NC[C@@H]1C,AC50,[17],21.6 µM (active)
same,AC50,[18],48 µM (active)
same,AC50,[19],> 52 µM (inactive)
same,AC50,[20],> 52 µM (inactive)
O=C(c1cc2c(s1)CCCCCC2)N1CCC2(CC1)OCCO2,IC50,[21],> 69.5 µM (inactive)
same,IC50,[22],> 69.5 µM (inactive)
COc1ccc2c3c([nH]c2c1)[C@H](CO)N(Cc1ccccc1OC)CC31CN(C)C1,AC50,[23],14.9 µM (active)
